From ChEMBL document CHEMBL5446079, “Affinity Biochemical Literature for EUbOPEN Chemogenomic Library” (2024)
pIC50: −log10 of the molar value.

Key:
[1] = biological target: T1, Peregrin (Homo sapiens, UniProt P55201)
T1 sequence (P55201 whole entry): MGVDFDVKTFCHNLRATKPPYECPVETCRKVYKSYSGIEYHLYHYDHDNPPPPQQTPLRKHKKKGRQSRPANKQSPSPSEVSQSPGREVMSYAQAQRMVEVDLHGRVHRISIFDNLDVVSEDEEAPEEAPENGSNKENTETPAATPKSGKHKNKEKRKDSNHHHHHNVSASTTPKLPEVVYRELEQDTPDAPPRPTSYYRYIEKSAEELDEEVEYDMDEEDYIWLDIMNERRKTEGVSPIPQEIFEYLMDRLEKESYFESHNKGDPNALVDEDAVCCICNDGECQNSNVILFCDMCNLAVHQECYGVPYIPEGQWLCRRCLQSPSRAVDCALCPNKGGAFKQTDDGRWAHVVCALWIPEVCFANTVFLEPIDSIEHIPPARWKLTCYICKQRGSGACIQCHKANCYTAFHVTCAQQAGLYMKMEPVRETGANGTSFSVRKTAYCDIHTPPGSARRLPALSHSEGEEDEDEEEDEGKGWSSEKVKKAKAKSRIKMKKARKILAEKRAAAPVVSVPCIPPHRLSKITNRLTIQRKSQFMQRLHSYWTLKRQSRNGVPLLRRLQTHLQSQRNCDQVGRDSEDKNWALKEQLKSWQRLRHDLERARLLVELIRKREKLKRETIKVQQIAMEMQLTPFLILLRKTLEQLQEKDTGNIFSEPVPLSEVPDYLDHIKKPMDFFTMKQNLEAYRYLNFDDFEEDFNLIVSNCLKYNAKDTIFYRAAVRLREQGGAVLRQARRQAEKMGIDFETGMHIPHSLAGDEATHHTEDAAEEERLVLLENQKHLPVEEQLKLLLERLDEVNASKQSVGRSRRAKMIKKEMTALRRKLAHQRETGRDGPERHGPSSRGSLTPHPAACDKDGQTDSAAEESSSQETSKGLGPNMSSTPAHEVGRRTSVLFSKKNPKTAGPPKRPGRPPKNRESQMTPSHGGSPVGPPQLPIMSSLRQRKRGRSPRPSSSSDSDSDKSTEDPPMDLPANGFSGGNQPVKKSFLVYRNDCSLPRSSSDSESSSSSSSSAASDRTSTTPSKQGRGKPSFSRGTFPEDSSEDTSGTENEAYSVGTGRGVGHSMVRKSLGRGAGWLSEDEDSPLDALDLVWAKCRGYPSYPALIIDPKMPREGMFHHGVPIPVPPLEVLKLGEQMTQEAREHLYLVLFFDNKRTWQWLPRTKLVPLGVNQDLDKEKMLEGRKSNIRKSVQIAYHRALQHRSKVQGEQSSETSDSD

[2] = biological target: T2, Bromodomain and PHD finger-containing protein 3 (Homo sapiens, UniProt Q9ULD4)
T2 sequence (Q9ULD4 whole entry): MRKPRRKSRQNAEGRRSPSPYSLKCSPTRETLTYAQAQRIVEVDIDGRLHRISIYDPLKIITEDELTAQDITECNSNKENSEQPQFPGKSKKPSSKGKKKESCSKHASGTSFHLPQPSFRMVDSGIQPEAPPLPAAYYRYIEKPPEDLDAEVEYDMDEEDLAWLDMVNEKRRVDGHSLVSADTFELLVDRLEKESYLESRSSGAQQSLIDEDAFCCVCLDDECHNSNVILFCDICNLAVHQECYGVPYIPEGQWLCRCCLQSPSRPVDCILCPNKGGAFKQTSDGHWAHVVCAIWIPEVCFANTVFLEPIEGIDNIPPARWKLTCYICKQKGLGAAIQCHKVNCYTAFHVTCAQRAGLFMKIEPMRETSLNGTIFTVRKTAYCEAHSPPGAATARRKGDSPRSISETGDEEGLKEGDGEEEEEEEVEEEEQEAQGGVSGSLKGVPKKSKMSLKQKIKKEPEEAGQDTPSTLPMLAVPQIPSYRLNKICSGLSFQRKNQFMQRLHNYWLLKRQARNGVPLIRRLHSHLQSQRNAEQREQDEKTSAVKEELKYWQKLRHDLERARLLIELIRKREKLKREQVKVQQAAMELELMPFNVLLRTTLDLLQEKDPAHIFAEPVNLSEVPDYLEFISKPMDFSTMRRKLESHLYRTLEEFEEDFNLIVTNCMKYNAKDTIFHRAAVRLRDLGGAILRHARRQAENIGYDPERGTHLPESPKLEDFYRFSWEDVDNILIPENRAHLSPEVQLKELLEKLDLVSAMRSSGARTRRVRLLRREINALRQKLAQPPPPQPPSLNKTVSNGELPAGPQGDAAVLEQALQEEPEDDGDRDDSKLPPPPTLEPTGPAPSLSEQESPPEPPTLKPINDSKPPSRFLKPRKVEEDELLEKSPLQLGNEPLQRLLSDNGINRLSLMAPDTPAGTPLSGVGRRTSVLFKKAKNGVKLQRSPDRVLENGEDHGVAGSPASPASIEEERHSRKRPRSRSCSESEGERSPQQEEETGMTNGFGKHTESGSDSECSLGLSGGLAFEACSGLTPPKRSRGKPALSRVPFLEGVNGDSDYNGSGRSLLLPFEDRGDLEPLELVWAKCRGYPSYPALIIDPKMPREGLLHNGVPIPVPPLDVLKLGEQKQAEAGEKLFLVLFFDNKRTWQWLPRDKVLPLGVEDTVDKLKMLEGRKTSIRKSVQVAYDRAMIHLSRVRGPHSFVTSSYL

[3] = biological target: T3, Bromodomain-containing protein 1 (Homo sapiens, UniProt O95696)
T3 sequence (O95696 whole entry): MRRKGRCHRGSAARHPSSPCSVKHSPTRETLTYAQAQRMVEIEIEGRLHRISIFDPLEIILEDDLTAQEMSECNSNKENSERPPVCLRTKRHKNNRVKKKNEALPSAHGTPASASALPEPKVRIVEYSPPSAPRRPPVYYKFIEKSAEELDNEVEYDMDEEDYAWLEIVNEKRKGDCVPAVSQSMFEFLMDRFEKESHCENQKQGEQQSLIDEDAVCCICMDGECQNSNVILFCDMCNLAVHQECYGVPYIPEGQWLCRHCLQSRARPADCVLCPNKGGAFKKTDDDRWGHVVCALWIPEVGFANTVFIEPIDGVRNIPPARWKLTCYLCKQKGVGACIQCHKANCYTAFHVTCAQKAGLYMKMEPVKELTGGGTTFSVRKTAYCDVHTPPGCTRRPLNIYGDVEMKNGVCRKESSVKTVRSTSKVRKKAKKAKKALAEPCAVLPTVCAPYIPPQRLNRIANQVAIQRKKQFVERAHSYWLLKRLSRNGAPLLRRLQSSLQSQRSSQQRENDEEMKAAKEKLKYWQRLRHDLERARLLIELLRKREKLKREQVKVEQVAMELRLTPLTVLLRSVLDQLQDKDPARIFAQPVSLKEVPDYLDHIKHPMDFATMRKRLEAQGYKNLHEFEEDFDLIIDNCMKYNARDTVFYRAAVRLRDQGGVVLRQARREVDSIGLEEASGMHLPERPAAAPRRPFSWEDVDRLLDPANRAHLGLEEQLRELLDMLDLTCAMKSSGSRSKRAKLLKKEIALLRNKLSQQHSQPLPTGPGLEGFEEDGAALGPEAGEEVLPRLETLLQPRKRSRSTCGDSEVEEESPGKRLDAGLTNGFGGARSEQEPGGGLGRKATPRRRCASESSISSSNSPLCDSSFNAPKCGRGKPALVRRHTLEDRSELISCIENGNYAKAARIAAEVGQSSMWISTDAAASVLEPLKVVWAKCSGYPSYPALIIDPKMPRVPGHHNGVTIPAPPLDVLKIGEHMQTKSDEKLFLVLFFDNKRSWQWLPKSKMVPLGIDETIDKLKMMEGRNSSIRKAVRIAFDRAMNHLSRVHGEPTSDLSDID

[4] = biological target: T4, Casein kinase I isoform alpha (Homo sapiens, UniProt P48729)
[5] = biological target: T5, Casein kinase I isoform epsilon (Homo sapiens, UniProt P49674)
[6] = biological target: T6, Casein kinase I isoform delta (Homo sapiens, UniProt P48730)
[7] = biological target: T5, Casein kinase I isoform epsilon; remark: listed apart in the source
[8] = biological target: T4, Casein kinase I isoform alpha; remark: listed apart in the source
[9] = biological target: T6, Casein kinase I isoform delta; remark: listed apart in the source
[10] = biological target: T7, Inhibitor of nuclear factor kappa-B kinase subunit beta (Homo sapiens, UniProt O14920)
T7 sequence (O14920 whole entry): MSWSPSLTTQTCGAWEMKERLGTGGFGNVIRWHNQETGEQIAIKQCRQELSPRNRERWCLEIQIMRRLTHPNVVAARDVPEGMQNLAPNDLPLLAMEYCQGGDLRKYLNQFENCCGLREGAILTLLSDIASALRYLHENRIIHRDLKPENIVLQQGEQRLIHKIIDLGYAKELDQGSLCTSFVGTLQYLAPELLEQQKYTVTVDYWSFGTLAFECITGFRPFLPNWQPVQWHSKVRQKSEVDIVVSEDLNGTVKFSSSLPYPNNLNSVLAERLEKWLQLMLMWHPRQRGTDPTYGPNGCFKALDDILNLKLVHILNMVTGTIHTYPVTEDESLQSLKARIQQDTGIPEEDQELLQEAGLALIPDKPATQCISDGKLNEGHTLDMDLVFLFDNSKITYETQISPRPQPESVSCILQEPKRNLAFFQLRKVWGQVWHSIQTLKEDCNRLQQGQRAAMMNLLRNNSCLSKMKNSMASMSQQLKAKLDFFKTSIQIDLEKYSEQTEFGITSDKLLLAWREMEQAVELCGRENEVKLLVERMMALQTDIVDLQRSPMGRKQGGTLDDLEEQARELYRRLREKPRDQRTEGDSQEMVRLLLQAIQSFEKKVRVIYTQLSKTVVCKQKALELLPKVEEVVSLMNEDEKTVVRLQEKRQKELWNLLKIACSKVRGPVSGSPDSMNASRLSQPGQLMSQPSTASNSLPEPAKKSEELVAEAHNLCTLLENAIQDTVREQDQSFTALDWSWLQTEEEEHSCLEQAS

T6 sequence (P48730 whole entry, canonical isoform): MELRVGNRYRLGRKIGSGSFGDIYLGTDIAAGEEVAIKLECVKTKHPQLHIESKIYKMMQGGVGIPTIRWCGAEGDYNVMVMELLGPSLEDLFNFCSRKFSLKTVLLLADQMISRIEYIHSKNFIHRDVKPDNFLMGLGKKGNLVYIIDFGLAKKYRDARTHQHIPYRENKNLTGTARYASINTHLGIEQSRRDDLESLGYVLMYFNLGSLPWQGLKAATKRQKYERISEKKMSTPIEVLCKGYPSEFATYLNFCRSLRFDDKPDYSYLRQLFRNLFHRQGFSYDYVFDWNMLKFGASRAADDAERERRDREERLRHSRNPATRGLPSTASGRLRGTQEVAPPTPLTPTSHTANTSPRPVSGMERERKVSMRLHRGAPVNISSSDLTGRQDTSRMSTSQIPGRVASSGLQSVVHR
T5 sequence (P49674 whole entry, canonical isoform): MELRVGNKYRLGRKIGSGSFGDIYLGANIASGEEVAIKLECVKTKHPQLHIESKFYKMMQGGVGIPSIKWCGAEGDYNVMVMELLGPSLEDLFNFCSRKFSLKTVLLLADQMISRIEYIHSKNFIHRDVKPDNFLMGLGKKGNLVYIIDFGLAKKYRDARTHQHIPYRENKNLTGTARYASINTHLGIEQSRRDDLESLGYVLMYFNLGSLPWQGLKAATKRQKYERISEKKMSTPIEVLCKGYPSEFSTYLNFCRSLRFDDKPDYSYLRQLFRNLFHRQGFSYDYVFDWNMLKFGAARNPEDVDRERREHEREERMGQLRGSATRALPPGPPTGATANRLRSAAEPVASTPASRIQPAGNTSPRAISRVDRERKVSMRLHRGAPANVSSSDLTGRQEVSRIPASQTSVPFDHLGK
T4 sequence (P48729 whole entry, canonical isoform): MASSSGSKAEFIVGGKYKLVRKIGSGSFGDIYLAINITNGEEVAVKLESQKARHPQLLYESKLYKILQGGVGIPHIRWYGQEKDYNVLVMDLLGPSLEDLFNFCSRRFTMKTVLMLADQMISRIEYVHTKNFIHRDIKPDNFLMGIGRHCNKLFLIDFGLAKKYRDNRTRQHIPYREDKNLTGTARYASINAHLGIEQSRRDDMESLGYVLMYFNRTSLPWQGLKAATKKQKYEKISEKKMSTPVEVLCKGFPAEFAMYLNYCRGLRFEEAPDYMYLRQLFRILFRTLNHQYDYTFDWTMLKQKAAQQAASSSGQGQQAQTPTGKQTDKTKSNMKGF

With `CCc1cc2cc(NS(=O)(=O)c3ccc(C#N)cc3)ccc2n(CC)c1=O` the pIC50 [1] was < 4.00, the pIC50 [2] was < 4.00 and the pIC50 [3] was < 4.00.

With `CCc1ccc(-c2ncn(CC3(F)CCN(C)CC3)c2-c2ccnc3[nH]ccc23)nc1` the pIC50 [4] was < 5.52, the pIC50 [5] was < 5.52 and the pIC50 [6] was < 5.52.

Work on `CN1CCC(F)(Cn2cnc(-c3ccc(F)cn3)c2-c2ccnc3[nH]ccc23)CC1` yielded a pIC50 [7] of 7.56, a pIC50 [8] of 8.14 and a pIC50 [9] of 8.21.

With `CN(C)C(=O)c1sc2nc(N3CCC(S(C)(=O)=O)CC3)cc(C(F)(F)F)c2c1N` [BI-5026] the pIC50 [10] was < 5.00.
